The values that follow are results of earlier work, collected in US4076804A, “Erythromycin therapy” (Abbott Laboratories, priority 1976, dated 1978).

For this data set the following is noted: general statement, no test described.

`CCOC(=O)CCC(=O)O[C@H]1[C@H](O[C@@H]2[C@@H](C)[C@H](O[C@H]3C[C@@](C)(OC)[C@@H](O)[C@H](C)O3)[C@@H](C)C(=O)O[C@H](CC)[C@@](C)(O)[C@H](O)[C@@H](C)C(=O)[C@H](C)C[C@@]2(C)O)O[C@H](C)C[C@@H]1N(C)C` [EES, erythromycin ethyl succinate]: the toxicity result is on record as “very low toxicity”.
